From patent publication US12629350B2, “Transthyretin tetramer stabilizing agent, and preventing agent or progression suppressing agent for transthyretin amyloidosis” (KANEKA CORPORATION, priority 2020, dated 2026)

Molecular target: T1, transthyretin tetramer (Homo sapiens, UniProt P02766)
T1 construct: from tissue; host or cells: human serum from three middle-aged and older persons
Test: Stabilization Test 1 of Transthyretin Tetramer (serum, urea denaturation, electrophoresis and Western blotting)
Type: biochemical
Conditions: glabridin alone added at concentrations up to 50 μM
Procedure: Serums were obtained from blood taken from three middle-aged and older persons. […] The resulting mixtures were incubated at 25° C. for 30 minutes, and then denatured with urea. Using these samples, the transthyretins (the tetramers, the dimers, and the monomers) in the serum were quantitated by electrophoresis and Western blotting. The stabilization effect was investigated using the ratio of the monomers (monomer) to the total amounts of the transthyretins (total) (monomer/total) and the ratio of the tetramers (tetramer) to the total amounts of the transthyretins (total) (tetramer/total). The analysis results of the monomer/total ratio are shown in the left of FIG. 1. The analysis results of the tetramer/total ratio are shown in the right of FIG. 1.

[1] = serum of three middle-aged and older persons, 25° C. 30 minutes, then denatured with urea

CC1(C)C=Cc2c(ccc3c2OC[C@@H](c2ccc(O)cc2O)C3)O1 [glabridin]
ratio of the monomers to the total amounts of the transthyretins (monomer/total) [1]: did not change | ratio of the tetramers to the total amounts of the transthyretins (tetramer/total) [1]: did not increase | stabilization effect for the transthyretin (serum): not observed
